Experimental data as given in ChEMBL document CHEMBL3046701, “Synthesis and biological activities of some N-hydroxymethylene and N-methoxymethylene thiazines” (Med Chem Res, 2007).

How the values were obtained:
[1] = Toxicity in po dosed Mus musculus albino (mouse); type: organism-based; conditions: in vivo
[2] = test system: Penicillium; assay: Antifungal activity against Penicillium inclobium at 100 ug/ml after 72 to 96 hr by disk diffusion method; type: functional; conditions: read-out: IZ
[3] = test system: Bacillus subtilis; assay: Antibacterial activity against Bacillus subtilis at 100 ug/ml after 24 hr by disk diffusion method; type: functional; conditions: read-out: IZ
[4] = test system: Aspergillus flavus; assay: Antifungal activity against Aspergillus flavus at 100 ug/ml after 72 to 96 hr by disk diffusion method; type: functional; conditions: read-out: IZ
[5] = test system: Escherichia coli; assay: Antibacterial activity against Escherichia coli at 100 ug/ml after 24 hr by disk diffusion method; type: functional; conditions: read-out: IZ
[6] = test system: Klebsiella pneumoniae; assay: Antibacterial activity against Klebsiella pneumoniae at 100 ug/ml after 24 hr by disk diffusion method; type: functional; conditions: read-out: IZ
[7] = test system: Staphylococcus aureus; assay: Antibacterial activity against Staphylococcus aureus at 100 ug/ml after 24 hr by disk diffusion method; type: functional; conditions: read-out: IZ
[8] = test system: Escherichia coli; assay: Antibacterial activity against Escherichia coli at 50 ug/ml after 24 hr by disk diffusion method; type: functional; conditions: read-out: IZ
[9] = test system: Bacillus subtilis; assay: Antibacterial activity against Bacillus subtilis at 50 ug/ml after 24 hr by disk diffusion method; type: functional; conditions: read-out: IZ
[10] = test system: Penicillium; assay: Antifungal activity against Penicillium inclobium at 50 ug/ml after 72 to 96 hr by disk diffusion method; type: functional; conditions: read-out: IZ
[11] = test system: Staphylococcus aureus; assay: Antibacterial activity against Staphylococcus aureus at 50 ug/ml after 24 hr by disk diffusion method; type: functional; conditions: read-out: IZ
[12] = test system: Aspergillus flavus; assay: Antifungal activity against Aspergillus flavus at 50 ug/ml after 72 to 96 hr by disk diffusion method; type: functional; conditions: read-out: IZ
[13] = test system: Klebsiella pneumoniae; assay: Antibacterial activity against Klebsiella pneumoniae at 50 ug/ml after 24 hr by disk diffusion method; type: functional; conditions: read-out: IZ
[14] = test system: Penicillium; assay: Antifungal activity against Penicillium inclobium at 25 ug/ml after 72 to 96 hr by disk diffusion method; type: functional; conditions: read-out: IZ
[15] = test system: Bacillus subtilis; assay: Antibacterial activity against Bacillus subtilis at 25 ug/ml after 24 hr by disk diffusion method; type: functional; conditions: read-out: IZ
[16] = test system: Staphylococcus aureus; assay: Antibacterial activity against Staphylococcus aureus at 25 ug/ml after 24 hr by disk diffusion method; type: functional; conditions: read-out: IZ
[17] = test system: Escherichia coli; assay: Antibacterial activity against Escherichia coli at 25 ug/ml after 24 hr by disk diffusion method; type: functional; conditions: read-out: IZ
[18] = test system: Aspergillus flavus; assay: Antifungal activity against Aspergillus flavus at 25 ug/ml after 72 to 96 hr by disk diffusion method; type: functional; conditions: read-out: IZ
[19] = test system: Klebsiella pneumoniae; assay: Antibacterial activity against Klebsiella pneumoniae at 25 ug/ml after 24 hr by disk diffusion method; type: functional; conditions: read-out: IZ
[20] = test system: Penicillium; assay: Antifungal activity against Penicillium inclobium after 72 to 96 hr by disk diffusion method; type: functional
[21] = test system: Aspergillus flavus; assay: Antifungal activity against Aspergillus flavus after 72 to 96 hr by disk diffusion method; type: functional
[22] = test system: Klebsiella pneumoniae; assay: Antibacterial activity against Klebsiella pneumoniae after 24 hr by disk diffusion method; type: functional
[23] = test system: Staphylococcus aureus; assay: Antibacterial activity against Staphylococcus aureus after 24 hr by disk diffusion method; type: functional
[24] = test system: Escherichia coli; assay: Antibacterial activity against Escherichia coli after 24 hr by disk diffusion method; type: functional
[25] = test system: Bacillus subtilis; assay: Antibacterial activity against Bacillus subtilis after 24 hr by disk diffusion method; type: functional

With `O=S1(=O)CC(c2ccc(Cl)cc2)NC(c2ccc(Cl)cc2)C1` (stereo unspecified) as the compound, how does the LD50 [1] read?
The LD50 was ≤ 1000 mg/kg.

Which LD50 [1] does the source give for `O=S1(=O)CC(c2ccc(Cl)cc2)N(CO)C(c2ccc(Cl)cc2)C1` (stereo unspecified) here?
The LD50 was ≤ 1000 mg/kg.

What does the source list for `COCN1C(c2ccccc2)CS(=O)(=O)CC1c1ccccc1` (stereo unspecified)?
zone of inhibition at 100 µg/mL [2]: 7 mm; zone of inhibition at 100 µg/mL [3]: 6 mm; zone of inhibition at 100 µg/mL [4]: 6 mm; zone of inhibition at 100 µg/mL [5]: 9 mm; zone of inhibition at 100 µg/mL [6]: 7 mm; zone of inhibition at 100 µg/mL [7]: 7 mm

For `COCN1C(c2ccc(OC)cc2)CS(=O)(=O)CC1c1ccc(OC)cc1` (stereo unspecified), which zone of inhibition at 50 µg/mL [8] is on record?
The zone of inhibition at 50 µg/mL was 11 mm.

And the zone of inhibition at 50 µg/mL [9]?
Its zone of inhibition at 50 µg/mL is 12 mm.

And the zone of inhibition at 50 µg/mL [10]?
Its zone of inhibition at 50 µg/mL is 11 mm.

And the zone of inhibition at 50 µg/mL [11]?
The zone of inhibition at 50 µg/mL was 12 mm.

And the zone of inhibition at 50 µg/mL [12]?
The zone of inhibition at 50 µg/mL was 10 mm.

What about the zone of inhibition at 50 µg/mL [13] of the same compound?
The zone of inhibition at 50 µg/mL was 11 mm.

With `COCN1C(c2ccc(Cl)cc2)CS(=O)(=O)CC1c1ccc(Cl)cc1` (stereo unspecified) as the compound, how does the zone of inhibition at 25 µg/mL [14] read?
Its zone of inhibition at 25 µg/mL is 14 mm.

What about the zone of inhibition at 25 µg/mL [15] of the same compound?
Its zone of inhibition at 25 µg/mL is 15 mm.

And the zone of inhibition at 25 µg/mL [16]?
The zone of inhibition at 25 µg/mL was 15 mm.

And the zone of inhibition at 25 µg/mL [17]?
The zone of inhibition at 25 µg/mL was 16 mm.

And the zone of inhibition at 25 µg/mL [18]?
Its zone of inhibition at 25 µg/mL is 12 mm.

What about the zone of inhibition at 25 µg/mL [19] of the same compound?
The zone of inhibition at 25 µg/mL was 16 mm.

For `COC1=CC(=O)C[C@@H](C)[C@]12Oc1c(Cl)c(OC)cc(OC)c1C2=O` [GRISEOFULVIN], which “inhibition zone (IZ)” value [20] is on record?
The value was 22 mm.

What about the “inhibition zone (IZ)” value [21] of the same compound?
Its value is 22 mm.

What does the source list for `CCn1cc(C(=O)O)c(=O)c2cc(F)c(N3CCNCC3)cc21` [NORFLOXACIN]?
inhibition zone (IZ) [22]: 22 mm; inhibition zone (IZ) [23]: 22 mm; inhibition zone (IZ) [24]: 22 mm; inhibition zone (IZ) [25]: 22 mm
